Results published in ChEMBL document CHEMBL3044672, “N9- and N7-(Chloromethyl Phenymethyl)Chloropurine Derivatives from , '-Dichloroxylenes: Synthesis and Anticancer Activity” (2005).

Tests used:
Format in all cases: functional
[1] = system: A498; assay: Cytotoxicity against Homo sapiens (human) A498 cells after 48 hr by sulforhodamine B assay; details: A498, 48 h
[2] = system: OVCAR-8; assay: Cytotoxicity against Homo sapiens (human) OVCAR8 cells after 48 hr by sulforhodamine B assay; details: OVCAR-8, 48 h
[3] = system: OVCAR-5; assay: Cytotoxicity against Homo sapiens (human) OVCAR5 cells after 48 hr by sulforhodamine B assay; details: OVCAR-5, 48 h
[4] = system: OVCAR-4; assay: Cytotoxicity against Homo sapiens (human) OVCAR4 cells after 48 hr by sulforhodamine B assay; details: OVCAR-4, 48 h
[5] = system: IGROV-1; assay: Cytotoxicity against Homo sapiens (human) IGROV1 cells after 48 hr by sulforhodamine B assay; details: IGROV-1, 48 h
[6] = system: OVCAR-3; assay: Cytotoxicity against Homo sapiens (human) OVCAR3 cells after 48 hr by sulforhodamine B assay; details: OVCAR-3, 48 h
[7] = system: UACC-257; assay: Cytotoxicity against Homo sapiens (human) UACC257 cells after 48 hr by sulforhodamine B assay; details: UACC-257, 48 h
[8] = system: SK-MEL-5; assay: Cytotoxicity against Homo sapiens (human) SK-MEL-5 cells after 48 hr by sulforhodamine B assay; details: SK-MEL-5, 48 h
[9] = system: SK-MEL-2; assay: Cytotoxicity against Homo sapiens (human) SK-MEL-2 cells after 48 hr by sulforhodamine B assay; details: SK-MEL-2, 48 h
[10] = system: LOX IMVI; assay: Cytotoxicity against Homo sapiens (human) LOXIMVI cells after 48 hr by sulforhodamine B assay
[11] = system: M14; assay: Cytotoxicity against Homo sapiens (human) M14 cells after 48 hr by sulforhodamine B assay; details: M14, 48 h
[12] = system: SNB-75; assay: Cytotoxicity against Homo sapiens (human) SNB75 cells after 48 hr by sulforhodamine B assay; details: SNB-75, 48 h
[13] = system: SNB-19; assay: Cytotoxicity against Homo sapiens (human) SNB19 cells after 48 hr by sulforhodamine B assay; details: SNB-19, 48 h
[14] = system: SF-539; assay: Cytotoxicity against Homo sapiens (human) SF539 cells after 48 hr by sulforhodamine B assay; details: SF-539, 48 h
[15] = system: DU-145; assay: Cytotoxicity against Homo sapiens (human) DU145 cells after 48 hr by sulforhodamine B assay; details: DU-145, 48 h
[16] = system: TK-10; assay: Cytotoxicity against Homo sapiens (human) TK10 cells after 48 hr by sulforhodamine B assay; details: TK-10, 48 h
[17] = system: CAKI-1; assay: Cytotoxicity against Homo sapiens (human) Caki1 cells after 48 hr by sulforhodamine B assay; details: CAKI-1, 48 h
[18] = system: SF-295; assay: Cytotoxicity against Homo sapiens (human) SF295 cells after 48 hr by sulforhodamine B assay; details: SF-295, 48 h
[19] = system: SW-620; assay: Cytotoxicity against Homo sapiens (human) SW620 cells after 48 hr by sulforhodamine B assay; details: SW-620, 48 h
[20] = system: HT-29; assay: Cytotoxicity against Homo sapiens (human) HT-29 cells after 48 hr by sulforhodamine B assay; details: HT-29, 48 h
[21] = system: HCT-116; assay: Cytotoxicity against Homo sapiens (human) HCT116 cells after 48 hr by sulforhodamine B assay; details: HCT-116, 48 h
[22] = system: HCC 2998; assay: Cytotoxicity against Homo sapiens (human) HCC2998 cells after 48 hr by sulforhodamine B assay; details: HCC 2998, 48 h
[23] = system: EKVX; assay: Cytotoxicity against Homo sapiens (human) EKVX cells after 48 hr by sulforhodamine B assay
[24] = system: A549; assay: Cytotoxicity against Homo sapiens (human) A549 cells after 48 hr by sulforhodamine B assay; details: A549, 48 h
[25] = system: RPMI-8226; assay: Cytotoxicity against Homo sapiens (human) RPMI8226 cells after 48 hr by sulforhodamine B assay; details: RPMI-8226, 48 h
[26] = system: K562; assay: Cytotoxicity against Homo sapiens (human) K562 cells after 48 hr by sulforhodamine B assay; details: K562, 48 h
[27] = system: MCF7; assay: Cytotoxicity against Homo sapiens (human) MCF7 cells assessed as cell growth at 10^-4 M after 48 hr by Alamar blue assay; details: MCF7, 48 h, read-out: Activity
[28] = read-out: LC50 (the source's name)

SMILES: ClCc1ccccc1Cn1cnc2ncnc(Cl)c21
- GI50 [1]: 18.6 µM
- LC50 (lethal concentration, 50% cell kill) [1]: 57.5 µM
- TGI [1]: 33.1 µM
- GI50 [2]: 2.75 µM
- LC50 (concentration killing 50% of cells) [2]: 58.9 µM
- TGI [2]: 8.7 µM
- GI50 [3]: 2.81 µM
- TGI [3]: 7.24 µM
- CC50 [3, 28]: 26.9 µM
- GI50 [4]: 4.89 µM
- LC50 (concentration killing 50% of cells) [4]: 77.6 µM
- TGI [4]: 20.4 µM
- GI50 [5]: 4.26 µM
- LC50 [5]: > 100 µM
- TGI [5]: 22.9 µM
- GI50 [6]: 2.04 µM
- LC50 [6]: 8.31 µM
- TGI [6]: 4.16 µM
- GI50 [7]: 5.88 µM
- LC50 (concentration killing 50% of cells) [7]: 61.6 µM
- TGI [7]: 21.9 µM
- GI50 [8]: 1.38 µM
- LC50 [8]: 15.8 µM
- TGI [8]: 4.07 µM
- GI50 [9]: 4.16 µM
- LC50 (concentration killing 50% of cells) [9]: > 100 µM
- TGI [9]: 19.5 µM
- GI50 [10]: 1.34 µM
- LC50 [10]: 7.07 µM
- TGI [10]: 3.09 µM
- GI50 [11]: 1.9 µM
- LC50 [11]: 27.5 µM
- TGI [11]: 5.12 µM
- GI50 [12]: 11.2 µM
- TGI [12]: 26.9 µM
- CC50 [12, 28]: 63.1 µM
- GI50 [13]: 7.24 µM
- LC50 [13]: > 100 µM
- TGI [13]: > 100 µM
- GI50 [14]: 2.34 µM
- LC50 (concentration killing 50% of cells) [14]: 12 µM
- TGI [14]: 5.01 µM
- GI50 [15]: 2.95 µM
- LC50 [15]: 33.1 µM
- TGI [15]: 10.2 µM
- GI50 [16]: 3.46 µM
- TGI [16]: 9.54 µM
- CC50 [16, 28]: 33.9 µM
- GI50 [17]: 2.34 µM
- TGI [17]: 4.16 µM
- CC50 [17, 28]: 7.41 µM
- GI50 [18]: 7.94 µM
- TGI [18]: 20.4 µM
- CC50 [18, 28]: 46.8 µM
- GI50 [19]: 2.23 µM
- TGI [19]: 4.67 µM
- CC50 [19, 28]: 10 µM
- GI50 [20]: 3.89 µM
- TGI [20]: > 100 µM
- CC50 [20, 28]: > 100 µM
- GI50 [21]: 1.51 µM
- TGI [21]: 4.07 µM
- CC50 [21, 28]: 40.7 µM
- GI50 [22]: 2.23 µM
- TGI [22]: 4.26 µM
- CC50 [22, 28]: 7.94 µM
- GI50 [23]: 5.37 µM
- TGI [23]: 17.8 µM
- CC50 [23, 28]: 45.7 µM
- GI50 [24]: 4.46 µM
- TGI [24]: 24 µM
- CC50 [24, 28]: > 100 µM
- GI50 [25]: 2.08 µM
- TGI [25]: 5.49 µM
- CC50 [25, 28]: 50.1 µM
- GI50 [26]: 2.23 µM
- TGI [26]: 5.88 µM
- CC50 [26, 28]: 83.2 µM
- growth at 100 µM [27]: 1%
